Data set [1] is described as follows: particle size measurement by laser diffraction (Helios-Sympatec). It is filed as physicochemical. To be noted: for Particle size distribution: Table 3, overall range. As for the experimental part:
Polymorph B has a narrow particle size distribution: d10-d90=1.8 μm-15.9 μm. The average particle size is 6.7 μm. Particle size measurements were carried out by means of laser diffraction spectra using the Helios-Sympatec system: dry disperser RODOS; focal length 50 mm.

The target of data set [2] is cyclooxygenase (CO) and lipoxygenase (LO). Kind of data set: inhibitory effect on the enzymes cyclooxygenase and lipoxygenase. The note with it: ratio of IC50 lipoxygenase to IC50 cyclooxygenase. It is filed as biochemical. From the text:
It is notable for a strong analgesic effect and for a similar inhibitory effect on the enzymes cyclooxygenase (CO) and lipoxygenase (LO) (IC50LO/IC50CO˜1). It can therefore be used in the treatment of disorders associated with a change in arachidonic acid metabolism. Particular mention should be made of rheumatoid diseases and the prevention of allergy-induced disorders. […] In addition, it can be used for the treatment of hypercholesterolaemia.

Data set [3] is described as follows: stability of the crystalline form during drying and storage, chemical stability. It is filed as physicochemical. From the text:
Polymorph B has a crystalline structure and high purity. Owing to the crystalline structure, polymorph B is stable during drying and storage. No phase transitions and no secondary aggregations are to be observed.
Surface phenomena such as electrostatic charging, adhesion, adsorption etc. occur to a distinctly smaller extent by comparison with polymorph A. The crystal structure additionally results in a high chemical stability. Owing to the narrow particle size distribution compared with polymorph A, it is possible to employ polymorph B directly for producing pharmaceutical formulations. An additional grinding step is unnecessary.

Consider `CC1(C)Cc2c(-c3ccccc3)c(-c3ccc(Cl)cc3)c(CC(=O)O)n2C1` [Polymorph A, 6-(4-chlorophenyl)-2,2-dimethyl-7-phenyl-2,3-dihydro-1H-pyrrolizin-5-ylacetic acid], for which, in data set [1], the Particle size distribution is reported as 2-500 μm.

For the compound `CC1(C)Cc2c(-c3ccccc3)c(-c3ccc(Cl)cc3)c(CC(=O)O)n2C1` [Polymorph B, 6-(4-chlorophenyl)-2,2-dimethyl-7-phenyl-2,3-dihydro-1H-pyrrolizin-5-ylacetic acid], the IC50LO/IC50CO in data set [2] is ~1. In addition, the Particle size distribution in data set [1] is listed as 0.5-70 μm. In data set [1] (laser diffraction), this compound yielded an average particle size of 6.7 μm. Also, the “particle size distribution d10” value in data set [1] (laser diffraction, dry disperser RODOS, focal length 50 mm) was 1.8 μm. The “stability during drying and storage” value in data set [3] (no phase transitions and no secondary aggregations observed) was “stable”. Moreover, the chemical stability result in data set [3] (resulting from the crystal structure) is given as “high”.

For the origin of these results see patent US20090209610A1, “Polymorphic form of 6-(4-chlorophenyl)-2,2-dimethyl-7-Phenyl-2,3-Dihydro-1h-Pyrrolizin-5-Ylacetic Acid” (Merckle GmgH, priority 2005, published 2009).
